Values of other authors in patent US12685733B2, “Indole molecules and use thereof in the inhibition of DNA polymerases” (BioVentures, LLC, priority 2019, dated 2026).

Target: T1, recombinant hpol κ (Homo sapiens, UniProt Q9UBT6)
T1 sequence (Q9UBT6 1-870): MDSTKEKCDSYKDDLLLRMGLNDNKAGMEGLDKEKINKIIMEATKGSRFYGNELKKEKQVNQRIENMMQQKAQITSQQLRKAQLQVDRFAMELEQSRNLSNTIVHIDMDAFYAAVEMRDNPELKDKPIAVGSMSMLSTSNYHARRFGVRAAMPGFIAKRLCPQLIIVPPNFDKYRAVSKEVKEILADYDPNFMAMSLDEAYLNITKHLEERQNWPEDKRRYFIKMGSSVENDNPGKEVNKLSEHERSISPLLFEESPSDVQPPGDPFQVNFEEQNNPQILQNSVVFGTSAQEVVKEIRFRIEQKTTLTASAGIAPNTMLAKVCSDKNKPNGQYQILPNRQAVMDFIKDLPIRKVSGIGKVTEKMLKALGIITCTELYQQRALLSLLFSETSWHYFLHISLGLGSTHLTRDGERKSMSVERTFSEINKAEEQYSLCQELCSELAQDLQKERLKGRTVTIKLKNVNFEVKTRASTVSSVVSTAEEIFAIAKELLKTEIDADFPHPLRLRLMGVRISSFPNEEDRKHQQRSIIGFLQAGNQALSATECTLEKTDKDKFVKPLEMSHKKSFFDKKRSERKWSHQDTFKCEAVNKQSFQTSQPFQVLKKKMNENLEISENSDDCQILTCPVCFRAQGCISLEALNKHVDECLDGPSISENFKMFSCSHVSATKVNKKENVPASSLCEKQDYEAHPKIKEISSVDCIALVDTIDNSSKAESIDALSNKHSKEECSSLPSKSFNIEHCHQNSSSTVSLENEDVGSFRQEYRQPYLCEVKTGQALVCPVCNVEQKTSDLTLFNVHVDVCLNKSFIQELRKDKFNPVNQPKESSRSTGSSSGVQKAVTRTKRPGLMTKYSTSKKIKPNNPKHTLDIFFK
Conditions: earlier screen; cited from earlier work

## CC(C)c1ccc2c(c1)c(SC(C)(C)C)c(CC(C)(C)C(=O)O)n2Cc1ccc(Cl)cc1 [MK-886]
  IC50 for inhibition of recombinant hpol κ: tens of micromolar
